Experimental data from ChEMBL document CHEMBL1201862, “PubChem BioAssay data set” (2004).
Structures can show the parent of a compound that is named as a salt. Calls of active or inactive are those of the source.

How the values were obtained:
[1] = target: 5-hydroxytryptamine receptor 2A (Mus musculus, UniProt P35363); type: functional, cell-based;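 note: CHO-K1 cells with tagged receptor and beta-arrestin; agonist potency measured as compound-induced activation of the receptor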
Mu-type opioid receptor = Mu-type opioid receptor (Homo sapiens, UniProt P35372); type: functional, cell-based;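 note: U2OS cells with beta-arrestin recruitment to OPRM1 by beta-gal complementation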
Chain of Mu-type opioid receptor (P35372 whole entry): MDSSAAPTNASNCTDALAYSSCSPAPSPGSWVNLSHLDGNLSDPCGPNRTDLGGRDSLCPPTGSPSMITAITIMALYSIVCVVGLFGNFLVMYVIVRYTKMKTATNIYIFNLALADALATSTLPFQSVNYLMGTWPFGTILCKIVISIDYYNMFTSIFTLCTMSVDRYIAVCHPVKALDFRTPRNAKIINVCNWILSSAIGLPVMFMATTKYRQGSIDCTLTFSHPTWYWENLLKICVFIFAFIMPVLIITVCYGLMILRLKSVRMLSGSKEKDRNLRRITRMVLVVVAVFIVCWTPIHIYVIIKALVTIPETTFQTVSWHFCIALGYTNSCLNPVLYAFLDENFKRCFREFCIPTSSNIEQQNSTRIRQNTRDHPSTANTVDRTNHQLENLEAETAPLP

[2] = viability loss in HEK293T cells – cell-based, cherry-picks, cytotoxicity control for HIV Vif inhibitor project, dose response (AID 652208); type: functional
Cytochrome P450 3A4 = Cytochrome P450 3A4 (Homo sapiens, UniProt P08684);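 note: CYP3A4 tested as one member of a cytochrome P450 panel screen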
Chain of Cytochrome P450 3A4 (P08684 whole entry): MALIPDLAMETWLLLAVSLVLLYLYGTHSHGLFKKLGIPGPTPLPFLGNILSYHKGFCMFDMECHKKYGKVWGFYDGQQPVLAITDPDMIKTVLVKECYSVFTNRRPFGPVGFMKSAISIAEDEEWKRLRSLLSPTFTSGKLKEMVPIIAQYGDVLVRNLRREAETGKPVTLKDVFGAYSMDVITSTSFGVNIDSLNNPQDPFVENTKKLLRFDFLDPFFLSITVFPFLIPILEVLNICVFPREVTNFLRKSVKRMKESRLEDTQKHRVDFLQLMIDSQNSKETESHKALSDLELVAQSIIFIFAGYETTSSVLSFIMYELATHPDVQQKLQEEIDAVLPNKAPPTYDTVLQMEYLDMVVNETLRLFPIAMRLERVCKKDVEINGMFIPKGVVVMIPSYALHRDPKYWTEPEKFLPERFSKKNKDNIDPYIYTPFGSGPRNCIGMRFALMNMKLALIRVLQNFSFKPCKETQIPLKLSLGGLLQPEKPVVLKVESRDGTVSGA

Cytochrome P450 1A2 = target: T1, Cytochrome P450 1A2 (Homo sapiens, UniProt P05177);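 note: PubChem cytochrome P450 panel assay, CYP1A2 panel member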
T1 sequence (P05177 whole entry): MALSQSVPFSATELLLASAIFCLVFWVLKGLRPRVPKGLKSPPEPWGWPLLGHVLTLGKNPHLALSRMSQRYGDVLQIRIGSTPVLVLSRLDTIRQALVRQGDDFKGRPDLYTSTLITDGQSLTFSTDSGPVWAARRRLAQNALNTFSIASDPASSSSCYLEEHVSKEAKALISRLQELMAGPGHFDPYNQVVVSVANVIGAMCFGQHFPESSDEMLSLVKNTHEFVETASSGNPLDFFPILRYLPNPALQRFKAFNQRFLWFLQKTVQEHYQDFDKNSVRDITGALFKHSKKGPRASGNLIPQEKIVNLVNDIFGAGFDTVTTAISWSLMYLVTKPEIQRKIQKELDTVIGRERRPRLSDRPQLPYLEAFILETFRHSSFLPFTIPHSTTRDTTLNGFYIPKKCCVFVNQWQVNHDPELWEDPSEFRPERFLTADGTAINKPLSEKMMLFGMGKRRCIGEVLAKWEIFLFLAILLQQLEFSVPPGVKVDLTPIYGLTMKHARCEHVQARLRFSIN

[3] = target: T2, Probable nicotinate-nucleotide adenylyltransferase (Staphylococcus aureus (strain N315), UniProt P65502); type: functional, Staphylococcus aureus subsp. aureus N315;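 for IC50 Mean: confirmatory dose-response retesting of NadD inhibitor hits first found in an ultra-high-throughput screen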
T2 sequence (P65502 whole entry): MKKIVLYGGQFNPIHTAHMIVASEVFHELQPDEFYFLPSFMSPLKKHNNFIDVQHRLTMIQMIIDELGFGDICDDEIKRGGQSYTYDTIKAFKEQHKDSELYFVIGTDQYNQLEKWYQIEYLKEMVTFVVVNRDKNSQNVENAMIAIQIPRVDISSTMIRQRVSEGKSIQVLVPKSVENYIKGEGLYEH

[4] = target: T3, Rac GTPase-activating protein 1 (Homo sapiens, UniProt Q9H0H5); test: blockers of MgcRacGAP-driven Rac1 GTP hydrolysis – biochemical, ADP Hunter fluorescence, primary and confirmatory, confirmation (AID 624330); type: functional
T3 sequence (Q9H0H5 whole entry): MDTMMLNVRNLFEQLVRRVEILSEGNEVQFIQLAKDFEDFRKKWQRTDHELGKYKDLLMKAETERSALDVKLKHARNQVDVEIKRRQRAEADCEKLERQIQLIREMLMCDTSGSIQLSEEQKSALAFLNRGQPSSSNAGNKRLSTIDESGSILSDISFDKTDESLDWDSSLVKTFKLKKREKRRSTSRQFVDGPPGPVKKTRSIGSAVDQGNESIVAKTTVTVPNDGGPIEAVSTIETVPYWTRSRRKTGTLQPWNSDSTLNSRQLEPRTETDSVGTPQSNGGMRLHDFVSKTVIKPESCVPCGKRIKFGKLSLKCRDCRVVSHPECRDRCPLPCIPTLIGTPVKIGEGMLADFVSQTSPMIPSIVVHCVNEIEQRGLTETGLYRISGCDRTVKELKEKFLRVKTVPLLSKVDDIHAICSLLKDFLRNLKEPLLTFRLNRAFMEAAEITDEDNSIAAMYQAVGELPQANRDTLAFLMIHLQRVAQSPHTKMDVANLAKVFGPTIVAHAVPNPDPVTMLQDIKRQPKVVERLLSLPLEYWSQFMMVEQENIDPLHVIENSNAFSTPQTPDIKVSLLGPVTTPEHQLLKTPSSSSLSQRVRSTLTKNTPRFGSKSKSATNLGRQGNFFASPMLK

[5] = viability loss in HeLa cells – cytotoxicity control for MgcRacGAP inhibitor project, dose response (AID 624300); type: functional
[6] = target: T2, Probable nicotinate-nucleotide adenylyltransferase; type: functional, Staphylococcus aureus subsp. aureus N315; conditions: read-out: IC50_Mean
[7] = target: T4, Small ubiquitin-related modifier 1 (Homo sapiens, UniProt P63165); test: SUMO1 protein-protein binding blockers, potency – biochemical, FRET, dose response (AID 624383); type: functional; conditions: read-out: IC50_Mean
T4 sequence (P63165 whole entry): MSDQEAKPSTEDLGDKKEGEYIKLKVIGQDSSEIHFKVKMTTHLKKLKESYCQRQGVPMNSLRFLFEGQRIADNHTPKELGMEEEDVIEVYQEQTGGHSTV

[8] = target: T4, Small ubiquitin-related modifier 1; test: SUMO1 protein interaction blockers, potency – biochemical, fluorescence polarization, uHTS hits, dose response (AID 624382); type: functional; conditions: read-out: IC50_Mean
[9] = target: T5, Methionyl-tRNA synthetase, putative (Trypanosoma brucei brucei, UniProt Q38C91); type: functional, Trypanosoma brucei brucei strain 927/4 GUTat10.1
T5 sequence (Q38C91 whole entry): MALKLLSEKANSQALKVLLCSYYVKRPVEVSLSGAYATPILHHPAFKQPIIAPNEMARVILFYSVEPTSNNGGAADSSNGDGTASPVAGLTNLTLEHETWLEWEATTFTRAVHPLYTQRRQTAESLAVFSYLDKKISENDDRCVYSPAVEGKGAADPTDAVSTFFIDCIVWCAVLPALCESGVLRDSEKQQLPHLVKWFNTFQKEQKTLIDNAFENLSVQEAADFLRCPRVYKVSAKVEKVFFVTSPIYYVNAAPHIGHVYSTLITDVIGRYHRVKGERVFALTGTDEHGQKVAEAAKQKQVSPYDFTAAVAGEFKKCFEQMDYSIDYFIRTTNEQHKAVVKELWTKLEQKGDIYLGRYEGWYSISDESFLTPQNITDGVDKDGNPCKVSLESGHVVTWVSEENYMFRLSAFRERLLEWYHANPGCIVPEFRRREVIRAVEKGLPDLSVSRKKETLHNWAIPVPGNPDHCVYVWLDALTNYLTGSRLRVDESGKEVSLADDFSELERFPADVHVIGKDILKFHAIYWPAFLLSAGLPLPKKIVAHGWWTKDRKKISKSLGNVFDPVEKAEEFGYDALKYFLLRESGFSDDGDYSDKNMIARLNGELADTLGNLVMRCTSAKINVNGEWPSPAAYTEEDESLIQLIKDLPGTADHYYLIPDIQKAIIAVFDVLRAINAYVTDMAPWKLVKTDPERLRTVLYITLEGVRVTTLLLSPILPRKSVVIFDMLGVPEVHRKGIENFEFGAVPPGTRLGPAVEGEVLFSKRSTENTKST

[10] = Counterscreen for inhibitors of Trypanosoma brucei methionyl tRNA synthetase (MetRS): Luminescence-based cell-based high throughput dose response assay to identify compounds that are cytotoxic to Jurkat human T lymphocyte cells.; type: functional
Streptococcus = test: GAS UMAA2166 growth inhibition – luminescence, BacTiterGlo, counter-screen for streptokinase expression inhibitor project, dose response (AID 1915); type: functional, organism-based;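 note: potency for reduction of bacterial viability or growth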
Streptokinase A = target: T6, Streptokinase A (Streptococcus pyogenes serotype M1, UniProt P10520); test: viability-normalized secreted streptokinase activity reduction – plasminogen activation absorbance, OD405, dose response (AID 1914); type: functional, Streptococcus pyogenes M1 GAS;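 note: secreted streptokinase activity via plasminogen activation per viability signal from cell pellet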
T6 sequence (P10520 whole entry): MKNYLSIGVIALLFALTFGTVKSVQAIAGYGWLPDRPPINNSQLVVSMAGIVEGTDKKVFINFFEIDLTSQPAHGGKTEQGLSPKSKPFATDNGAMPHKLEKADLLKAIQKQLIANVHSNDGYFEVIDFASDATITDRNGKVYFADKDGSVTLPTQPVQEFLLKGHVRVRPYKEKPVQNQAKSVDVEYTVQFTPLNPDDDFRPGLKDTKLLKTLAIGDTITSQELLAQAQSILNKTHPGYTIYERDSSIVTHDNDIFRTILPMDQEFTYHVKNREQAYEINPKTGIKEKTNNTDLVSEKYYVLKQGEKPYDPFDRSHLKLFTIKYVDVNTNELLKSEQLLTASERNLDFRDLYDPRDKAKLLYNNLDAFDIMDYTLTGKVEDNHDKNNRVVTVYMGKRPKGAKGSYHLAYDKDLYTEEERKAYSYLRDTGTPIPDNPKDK

[11] = system: Streptococcus sp. 'group A'; test: Streptococcus pyogenes SK(-)GAS viability under kanamycin – luminescence, BacTiterGlo, confirmation, counter-screen for streptokinase expression inhibitor project, dose response (AID 1900); type: functional, organism-based
[12] = target: T5, Methionyl-tRNA synthetase, putative; type: functional, Trypanosoma brucei brucei strain 927/4 GUTat10.1; remark: listed apart in the source
INS1 = test: INS-1E survival protection against cytokine death – cell-based, luminescence, retest, dose response (AID 449756); type: functional; conditions: Rattus norvegicus;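 note: cell death triggered by IL-1 beta plus TNF-alpha plus IFN-gamma mixture; protective hits raise ATP signal compared with cytokine alone wells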
[13] = target: T7, COUP transcription factor 2 (Homo sapiens, UniProt P24468); test: Luminescence-based cell-based high throughput dose response assay to identify inhibitors of COUP-TFII (NR2F2).; type: functional;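 note: HEK293 cells transiently cotransfected with COUP-TFII expression vector and reporter; luciferase reporter luminescence driven by COUP-TFII from the pX2-168 reporter plasmid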
T7 sequence (P24468 whole entry): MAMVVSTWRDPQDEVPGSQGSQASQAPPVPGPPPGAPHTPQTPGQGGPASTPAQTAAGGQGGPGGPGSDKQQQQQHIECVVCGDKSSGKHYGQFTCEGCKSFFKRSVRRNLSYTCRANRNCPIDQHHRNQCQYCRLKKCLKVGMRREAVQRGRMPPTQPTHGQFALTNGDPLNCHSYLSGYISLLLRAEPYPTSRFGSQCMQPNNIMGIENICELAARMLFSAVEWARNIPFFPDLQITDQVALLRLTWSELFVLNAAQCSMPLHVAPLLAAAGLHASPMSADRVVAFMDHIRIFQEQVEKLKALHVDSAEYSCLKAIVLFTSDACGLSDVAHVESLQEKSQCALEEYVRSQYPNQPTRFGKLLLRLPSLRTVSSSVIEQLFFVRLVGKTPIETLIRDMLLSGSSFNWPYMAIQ

[14] = Counterscreen for activators of the function of SWI/SNF related, matrix associated, actin dependent regulator of chromatin, subfamily a, member 2 (SMARCA2, BRM): Luminescence-based cell-based high throughput dose response assay to identify non-selective compounds using the VP16 reporter assay.; type: functional
[15] = target: SWI/SNF-related matrix-associated actin-dependent regulator of chromatin subfamily A member 2 (Homo sapiens, UniProt P51531); test: Luminescence-based cell-based high throughput dose response assay to identify activators of the function of SWI/SNF related, matrix associated, actin dependent regulator of chromatin, subfamily a, member 2 (SMARCA2, BRM).; type: functional
Chain of SWI/SNF-related matrix-associated actin-dependent regulator of chromatin subfamily A member 2 (P51531 whole entry): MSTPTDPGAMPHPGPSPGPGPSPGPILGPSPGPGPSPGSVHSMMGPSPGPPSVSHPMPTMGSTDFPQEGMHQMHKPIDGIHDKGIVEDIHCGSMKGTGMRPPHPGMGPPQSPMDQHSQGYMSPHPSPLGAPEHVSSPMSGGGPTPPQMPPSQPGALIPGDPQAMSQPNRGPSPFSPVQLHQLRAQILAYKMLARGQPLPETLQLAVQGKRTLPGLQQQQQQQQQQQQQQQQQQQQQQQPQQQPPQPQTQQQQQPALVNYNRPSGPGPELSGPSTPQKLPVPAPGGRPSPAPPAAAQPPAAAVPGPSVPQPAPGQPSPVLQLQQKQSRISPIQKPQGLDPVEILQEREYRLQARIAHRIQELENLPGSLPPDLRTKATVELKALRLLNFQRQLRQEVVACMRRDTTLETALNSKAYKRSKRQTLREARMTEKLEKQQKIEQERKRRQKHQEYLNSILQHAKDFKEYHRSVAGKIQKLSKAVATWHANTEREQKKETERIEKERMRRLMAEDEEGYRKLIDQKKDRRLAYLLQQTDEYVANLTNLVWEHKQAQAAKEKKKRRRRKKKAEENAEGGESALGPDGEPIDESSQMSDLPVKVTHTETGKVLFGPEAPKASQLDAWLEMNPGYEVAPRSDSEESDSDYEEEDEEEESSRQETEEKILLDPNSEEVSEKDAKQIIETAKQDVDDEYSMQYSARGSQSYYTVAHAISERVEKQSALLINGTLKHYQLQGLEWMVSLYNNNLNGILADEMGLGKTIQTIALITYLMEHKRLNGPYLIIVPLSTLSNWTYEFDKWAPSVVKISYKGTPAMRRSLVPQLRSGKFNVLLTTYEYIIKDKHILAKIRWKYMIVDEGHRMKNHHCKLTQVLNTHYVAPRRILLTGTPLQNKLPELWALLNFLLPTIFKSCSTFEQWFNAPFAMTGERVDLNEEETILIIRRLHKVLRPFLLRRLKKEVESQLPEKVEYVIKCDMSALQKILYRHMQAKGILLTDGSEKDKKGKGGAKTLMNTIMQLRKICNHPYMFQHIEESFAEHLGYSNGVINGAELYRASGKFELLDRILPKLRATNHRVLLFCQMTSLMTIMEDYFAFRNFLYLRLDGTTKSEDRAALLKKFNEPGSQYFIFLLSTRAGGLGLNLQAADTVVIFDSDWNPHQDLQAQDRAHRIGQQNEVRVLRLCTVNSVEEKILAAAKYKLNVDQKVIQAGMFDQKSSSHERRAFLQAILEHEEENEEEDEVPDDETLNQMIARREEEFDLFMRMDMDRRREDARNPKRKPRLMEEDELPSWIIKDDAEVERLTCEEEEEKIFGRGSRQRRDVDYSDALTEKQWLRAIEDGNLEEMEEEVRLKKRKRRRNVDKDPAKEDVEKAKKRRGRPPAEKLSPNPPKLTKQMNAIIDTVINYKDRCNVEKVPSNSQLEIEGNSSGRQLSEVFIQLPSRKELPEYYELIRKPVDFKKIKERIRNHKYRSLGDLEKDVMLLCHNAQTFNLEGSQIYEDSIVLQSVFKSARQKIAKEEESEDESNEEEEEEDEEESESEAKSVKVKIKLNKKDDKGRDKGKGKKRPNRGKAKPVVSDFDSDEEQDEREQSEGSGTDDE

Beta Lactamase = Beta Lactamase (Pseudomonas aeruginosa, UniProt Q932Y6); test: BLA reporter interference, concentration series – BLA reporter cells, FRET fluorescence, artefact control for NOD2-RIPK2 interaction inhibitor project, dose response (AID 651552); type: functional, cell-based
Chain of Beta Lactamase (Q932Y6 whole entry, the tested form may be a part): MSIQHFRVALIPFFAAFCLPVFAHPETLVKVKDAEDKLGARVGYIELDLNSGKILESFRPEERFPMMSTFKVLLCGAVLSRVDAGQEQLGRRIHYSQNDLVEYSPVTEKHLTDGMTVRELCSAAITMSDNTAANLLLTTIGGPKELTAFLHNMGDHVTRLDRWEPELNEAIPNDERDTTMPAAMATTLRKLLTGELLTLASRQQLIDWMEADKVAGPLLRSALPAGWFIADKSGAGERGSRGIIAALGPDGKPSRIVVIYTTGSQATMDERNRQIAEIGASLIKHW

[16] = Fluorescence-based cell-based high throughput dose response assay for inhibitors of the interaction of nucleotide-binding oligomerization domain containing 2 (NOD2) and the receptor-interacting serine-threonine kinase 2 (RIPK2).; type: functional; conditions: Homo sapiens
[17] = Trypanosoma cruzi growth suppression in host cells – NIH3T3 host cells, beta-gal luminescence, confirmation (AID 2044); type: functional, cell-based;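 note: intracellular parasites grown in NIH/3T3 mouse fibroblasts as host cells; luminescent beta-galactosidase reporter signal from transgenic T. cruzi replicating inside host cells; inhibitors lower the luminescence signal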
[18] = NIH3T3 cell viability loss – ATP luminescence, mouse fibroblasts, counter-screen, dose response (AID 2010); type: functional, cell-based;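 note: cells exposed to compound for about 90 hours before reading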
[19] = viability inhibitors of stage V gametocytes – luminescence, dose response (AID 1117278); type: functional, cell-based;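 note: gametocytes exposed to compound for 24 hours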
[20] = viability loss in human Jurkat cells – cell-based, luminescence, cytotoxicity control for P. falciparum gametocyte viability project, dose response (AID 1117277); type: functional;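 note: potency reflects loss of cellular ATP meaning fewer viable cells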
[21] = target: Glucose-6-phosphate 1-dehydrogenase (Homo sapiens, UniProt P11413); test: inhibition of Homo sapiens G6PD, dose series – biochemical, fluorescence, selectivity assay for P. falciparum G6PD inhibitor project, dose response (AID 504792); type: functional
Chain of Glucose-6-phosphate 1-dehydrogenase (P11413 whole entry): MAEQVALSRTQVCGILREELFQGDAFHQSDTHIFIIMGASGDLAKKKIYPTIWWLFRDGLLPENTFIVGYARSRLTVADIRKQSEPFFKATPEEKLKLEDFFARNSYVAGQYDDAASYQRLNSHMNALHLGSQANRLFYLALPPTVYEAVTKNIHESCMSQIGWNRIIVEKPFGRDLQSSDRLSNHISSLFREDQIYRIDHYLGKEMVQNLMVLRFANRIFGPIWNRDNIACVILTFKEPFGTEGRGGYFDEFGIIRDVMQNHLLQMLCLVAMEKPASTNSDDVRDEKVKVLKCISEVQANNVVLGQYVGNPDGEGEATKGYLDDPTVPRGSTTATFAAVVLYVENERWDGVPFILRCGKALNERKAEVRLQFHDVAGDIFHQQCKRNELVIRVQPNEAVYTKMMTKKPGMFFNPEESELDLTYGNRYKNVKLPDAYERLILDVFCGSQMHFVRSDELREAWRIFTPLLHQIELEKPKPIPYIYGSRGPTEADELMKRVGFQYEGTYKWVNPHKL

[22] = target: T8, Mitochondrial peptide methionine sulfoxide reductase (Bos taurus, UniProt P54149); test: Absorbance-based biochemical high throughput dose response assay for activators of Methionine sulfoxide reductase A (MsrA).; type: functional
T8 sequence (P54149 whole entry): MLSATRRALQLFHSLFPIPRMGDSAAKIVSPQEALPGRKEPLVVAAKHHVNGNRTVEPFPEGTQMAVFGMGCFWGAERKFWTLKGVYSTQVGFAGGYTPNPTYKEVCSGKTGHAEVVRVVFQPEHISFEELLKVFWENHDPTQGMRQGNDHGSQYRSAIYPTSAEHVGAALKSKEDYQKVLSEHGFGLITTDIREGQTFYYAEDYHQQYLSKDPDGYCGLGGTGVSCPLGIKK

Vero = test: cells; type: functional; conditions: Chlorocebus sabaeus
Large T antigen = Large T antigen (Simian virus 40, UniProt P03070); type: functional, Betapolyomavirus macacae;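 note: Confirmatory-stage PubChem screen for compounds that inhibit SV40 T antigen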
Chain of Large T antigen (P03070 whole entry): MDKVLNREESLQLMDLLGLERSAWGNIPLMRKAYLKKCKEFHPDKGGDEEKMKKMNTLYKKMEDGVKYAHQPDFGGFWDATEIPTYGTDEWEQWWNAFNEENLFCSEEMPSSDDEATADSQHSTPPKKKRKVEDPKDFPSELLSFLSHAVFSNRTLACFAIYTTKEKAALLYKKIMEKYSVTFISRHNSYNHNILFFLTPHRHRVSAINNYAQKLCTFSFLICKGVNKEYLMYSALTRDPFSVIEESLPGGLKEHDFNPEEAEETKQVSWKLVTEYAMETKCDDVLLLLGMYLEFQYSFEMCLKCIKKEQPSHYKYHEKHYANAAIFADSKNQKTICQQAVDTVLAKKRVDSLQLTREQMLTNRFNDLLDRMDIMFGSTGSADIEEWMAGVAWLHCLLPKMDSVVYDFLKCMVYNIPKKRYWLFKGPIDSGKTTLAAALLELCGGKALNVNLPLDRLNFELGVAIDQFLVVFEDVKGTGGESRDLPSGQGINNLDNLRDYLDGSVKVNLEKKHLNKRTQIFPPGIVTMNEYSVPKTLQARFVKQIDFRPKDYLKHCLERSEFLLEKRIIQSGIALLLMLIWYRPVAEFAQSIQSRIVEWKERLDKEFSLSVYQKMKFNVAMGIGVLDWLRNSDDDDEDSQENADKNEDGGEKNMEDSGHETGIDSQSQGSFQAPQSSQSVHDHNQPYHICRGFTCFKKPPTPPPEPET

Chain of 5-hydroxytryptamine receptor 2A (P35363 whole entry): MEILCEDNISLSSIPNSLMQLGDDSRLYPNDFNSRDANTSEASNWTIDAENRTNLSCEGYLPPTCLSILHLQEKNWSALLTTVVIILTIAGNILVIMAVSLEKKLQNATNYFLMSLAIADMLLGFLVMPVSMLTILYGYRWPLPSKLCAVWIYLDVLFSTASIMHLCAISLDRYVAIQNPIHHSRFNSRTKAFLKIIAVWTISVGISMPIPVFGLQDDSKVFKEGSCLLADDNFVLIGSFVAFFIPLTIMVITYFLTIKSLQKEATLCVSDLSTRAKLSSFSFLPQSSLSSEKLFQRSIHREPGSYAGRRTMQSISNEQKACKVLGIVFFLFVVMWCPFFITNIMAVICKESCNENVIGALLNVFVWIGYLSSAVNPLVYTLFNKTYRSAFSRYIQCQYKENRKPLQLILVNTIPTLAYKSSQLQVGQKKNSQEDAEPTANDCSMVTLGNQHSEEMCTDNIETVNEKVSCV

Compound: CCCN(CCc1ccccc1)C1CCc2c(O)cccc2C1 (stereo unspecified)
- EC50 [1]: 0.0038 µM (active)
- EC50 (Mu-type opioid receptor): 92.6 µM (inactive)

Compound: Cc1nn(Cc2c(Cl)cccc2Cl)c(C)c1NC(=O)c1cnn2c(C(F)F)cc(-c3ccccc3)nc12
- AC50 [2]: 26 µM (active)
- AC50 (Cytochrome P450 3A4): inconclusive
- AC50 (Cytochrome P450 1A2): 31.6 µM (inconclusive)

Compound: CNC[C@H](O)c1cccc(O)c1 [PHENYLEPHRINE HYDROCHLORIDE]
- EC50 [1]: 19.3 µM (inactive)
- EC50 (Mu-type opioid receptor): 92.4 µM (inactive)

Compound: Cc1cc(NCCCCCCCNc2cc(C)nc3cc([N+](=O)[O-])ccc23)c2ccc([N+](=O)[O-])cc2n1
- IC50 [3]: 15.2 µM (active)
- IC50 [4]: 26.1 µM (active)
- CC50 [5]: 37.8 µM (active)
- IC50 [6]: 23.2 µM (active)
- IC50 [7]: 2.12 µM (active)
- IC50 [8]: > 66.6 µM (inactive)

Compound: COc1ccc(Cc2nnc(S)n2NC(=O)Nc2ccc(Cl)c(Cl)c2)cc1
- IC50 [9]: 76.2 µM (inactive)
- IC50 [10]: 54.2 µM (inactive)
- EC50 (Streptococcus): 63.3 µM (active)
- EC50 (Streptokinase A): 20.3 µM (active)
- EC50 [11]: 3.39 µM (active)
- IC50 [12]: 17.7 µM (inactive)

Compound: CC(C)OCCCNc1[nH]cnc2c3cc(F)ccc3nc1-2
- AC50 [2]: > 52 µM (inactive)
- AC50 (INS1): 1.63 µM (active)
- IC50 [13]: 6.62 µM (active)

Compound: O=C(COC(=O)c1nc(Cl)c(Cl)c(Cl)c1Cl)c1ccc[nH]1
- EC50 [14]: > 91.1 µM (inactive)
- EC50 [15]: > 91.1 µM (inactive)

Compound: CCOC(=O)[C@]12Cc3cc(Cl)ccc3[C@H]1N(C(C)C)C(=O)c1ccccc12
- IC50 (Beta Lactamase): 45.2 µM (inactive)
- IC50 [16]: 2.21 µM (active)

Compound: O=c1[nH]sc2cc(F)ccc12
- EC50 [17]: 0.202 µM (active)
- EC50 [18]: 16.1 µM (active)
- EC50 [14]: > 91.1 µM (inactive)
- IC50 [19]: > 36.3 µM (inactive)
- IC50 [20]: 22.2 µM (inactive)
- IC50 [21]: > 80 µM (inactive)
- EC50 [22]: > 104 µM (inactive)
- CC50 (Vero): > 25 µM (active)
- IC50 (Large T antigen): 33.3 µM (active)
- EC50 [15]: > 91.1 µM (inactive)
